Consider 51 compounds from patent US8143288B2, “Inhibitors of HCV replication” (priority 2005, dated 2012).

Each structure is given as a SMILES string.

The test relates to HCV 1b-377-neo replicon cells. Description: HCV replicon FRET assay. The format is cell-based. Particulars: Hepatitis C virus; HCV replicon; read-out: Activity (EC50). On the technique in general: In antiviral work, replicon cells carry a viral genome segment that copies itself.
In the case of `CCCc1c(C(=O)N2CCC[C@H]2C(=O)Nc2ccc(/C=C/c3ccc(NC(=O)[C@@H]4CCCN4C(=O)c4cnn(-c5ccccc5)c4CCC)cc3)cc2)cnn1-c1ccccc1` [Example 175], the EC50 lay within 1000 to 10000 nM.
In the case of `CCc1cc(Br)ccc1S(=O)(=O)N1CCC[C@H]1C(=O)Nc1ccc(/C=C/c2ccc(NC(=O)[C@@H]3CCCN3S(=O)(=O)c3ccc(Br)cc3CC)cc2)cc1` [Example 278] it was 1000 to 10000 nM.
The result for `O=C(Nc1ccc(/C=C/c2ccc(NC(=O)[C@@H]3CCCN3C(=O)c3ncccc3OCc3ccccc3)cc2)cc1)[C@@H]1CCCN1C(=O)c1ncccc1OCc1ccccc1` [Example 183] reads 1000 to 10000 nM.
As for `CC(C)(C)OC(=O)N1c2ccccc2C[C@H]1C(=O)Nc1ccc(/C=C/c2ccc(NC(=O)[C@@H]3Cc4ccccc4N3C(=O)OC(C)(C)C)cc2)cc1` [Example 20], the EC50 was in the range of 100 to 1000 nM.
`O=C(CC1CC1)Nc1ccc(/C=C/c2ccc(NC(=O)[C@@H]3CCCN3C(=O)[C@H]3CCCO3)cc2)cc1` [Example 261]: the EC50 lay within 1000 to 10000 nM.
Consider `O=C(Nc1ccc(/C=C/c2ccc(NS(=O)(=O)Cc3ccccc3)cc2)cc1)[C@@H]1CCCN1C(=O)Cc1ccccc1` [Example 250B], for which the half-maximal effective concentration (EC50) lay within 100 to 1000 nM.
As for `CSCC(=O)N1CCC[C@H]1C(=O)Nc1ccc(/C=C/c2ccc(NC(=O)[C@@H]3CCCN3C(=O)CSC)cc2)cc1` [Example 81], the EC50 was in the range of 0.1 to 90 nM.
Take `CC(=O)N1CC=C[C@H]1C(=O)Nc1ccc(/C=C/c2ccc(NC(=O)[C@@H]3C=CCN3C(C)=O)cc2)cc1` [Example 217]: the EC50 is 0.1 to 90 nM.
In the case of `C[C@H](NC(=O)Cc1ccccc1)C(=O)Nc1ccc(/C=C/c2ccc(NC(=O)[C@@H]3CCCN3C(=O)Cc3ccccc3)cc2)cc1` [Example 271] it was 0.1 to 90 nM; in that of `CSc1ncccc1C(=O)N1CCC[C@H]1C(=O)Nc1ccc(/C=C/c2ccc(NC(=O)[C@@H]3CCCN3C(=O)c3cccnc3SC)cc2)cc1` [Example 192], 100 to 1000 nM; in that of `CC(C)C(=O)N1CC=C[C@H]1C(=O)Nc1ccc(/C=C/c2ccc(NC(=O)[C@@H]3C=CCN3C(=O)C(C)C)cc2)cc1` [Example 73], 100 to 1000 nM.
For the compound `CCc1ccnc(C(=O)N2CCC[C@H]2C(=O)Nc2ccc(/C=C/c3ccc(NC(=O)[C@@H]4CCCN4C(=O)c4cc(CC)ccn4)cc3)cc2)c1` [Example 188], the 50% effective concentration (EC50) is 100 to 1000 nM.
With `COCC(=O)N1CCC[C@H]1C(=O)Nc1ccc(/C=C/c2ccc(NC(=O)[C@@H]3CCCN3C(=O)c3ccc(N(C)C)cc3)cc2)cc1` [Example 91], the EC50 lay in the range of 100 to 1000 nM.
The result for `Cc1noc(C)c1C(=O)N1CCC[C@H]1C(=O)Nc1ccc(/C=C/c2ccc(NC(=O)[C@@H]3CCCN3C(=O)c3c(C)noc3C)cc2)cc1` [Example 202] reads 100 to 1000 nM; that for `CN(C)[C@H]1C[C@@H](C(=O)Nc2ccc(/C=C/c3ccc(NC(=O)[C@@H]4C[C@H](N(C)C)CN4C(=O)c4ccccc4NCc4ccccc4)cc3)cc2)N(C(=O)c2ccccc2NCc2ccccc2)C1` [Example 229], 1000 to 10000 nM.
Consider `CC(C)N(C(=O)N1CCCC1C(=O)Nc1ccc(/C=C/c2ccc(NC(=O)C3CCCN3C(=O)N(C(C)C)C(C)C)cc2)cc1)C(C)C` (stereo not drawn) [Example 284], for which the EC50 lay within 0.1 to 90 nM.
In the case of `[N-]=[N+]=Nc1cccc(CC(=O)N2CCC[C@H]2C(=O)Nc2ccc(/C=C/c3ccc(NC(=O)[C@@H]4CCCN4C(=O)CCCC[C@@H]4SC[C@@H]5NC(=O)N[C@@H]54)cc3)cc2)c1` [Example 127] it was 100 to 1000 nM; in that of `O=C(O)CCC(=O)N1CCC[C@H]1C(=O)Nc1ccc(/C=C/c2ccc(NC(=O)[C@@H]3CCCN3C(=O)CCC(=O)O)cc2)cc1` [Example 30], 100 to 1000 nM.
Turning to `O=C(Nc1ccc(/C=C/c2ccc(NC(=O)[C@@H]3CCCN3C(=O)C3CCC3)cc2)cc1)[C@@H]1CCCN1C(=O)c1cccnc1` [Example 88], the EC50 fell in the range of 0.1 to 90 nM.
Take `O=C(Nc1ccc(/C=C/c2ccc(NC(=O)[C@@H]3CCCN3C(=O)Cc3ccncc3)cc2)cc1)[C@@H]1CCCN1C(=O)Cc1ccncc1` [Example 43]: the EC50 fell in the range of 100 to 1000 nM.
As for `CCC(C)NC(=O)O[C@@H]1C[C@@H](C(=O)Nc2ccc(/C=C/c3ccc(NC(=O)[C@@H]4C[C@@H](OC(=O)NC(C)CC)CN4C(=O)OCc4ccccc4)cc3)cc2)N(C(=O)OCc2ccccc2)C1` (stereo partly drawn) [Example 249], the EC50 fell in the range of 1000 to 10000 nM.
The result for `CN(C(=O)[C@@H]1CCCN1C(=O)OCc1ccccc1)c1ccc(/C=C/c2ccc(N(C)C(=O)[C@@H]3CCCN3C(=O)OCc3ccccc3)cc2)cc1` [Example 244] reads 1000 to 10000 nM; that for `O=C(Nc1ccc(/C=C/c2ccc(NC(=O)[C@@H]3CCCN3C(=O)c3ccccc3-n3cccc3)cc2)cc1)[C@@H]1CCCN1C(=O)c1ccccc1-n1cccc1` [Example 137], 1000 to 10000 nM; that for `Cc1nnsc1C(=O)N1CCC[C@H]1C(=O)Nc1ccc(/C=C/c2ccc(NC(=O)[C@@H]3CCCN3C(=O)c3snnc3C)cc2)cc1` [Example 199], 0.1 to 90 nM.
Regarding `O=C(Nc1ccc(/C=C/c2ccc(NC(=O)[C@@H]3CCCN3C(=O)OCc3ccccc3)cc2)cc1)[C@@H]1CCCN1C(=O)OCc1ccccc1` [Example 2], the 50% effective concentration (EC50) lay in the range of 0.1 to 90 nM.
Consider `O=C(Nc1ccc(/C=C/c2ccc(NC(=O)[C@@H]3CCCN3C(=O)Cc3ccccc3)cc2)cc1)c1ccccc1` [Example 264], for which the EC50 was 0.1 to 90 nM.
The result for `O=C(Nc1ccc(/C=C/c2ccc(NC(=O)[C@@H]3CCCN3C(=O)c3ccccc3N3CCCCC3)cc2)cc1)[C@@H]1CCCN1C(=O)c1ccccc1N1CCCCC1` [Example 172] reads 1000 to 10000 nM.
For `O=C(Cc1ccccc1)Nc1ccc(/C=C/c2ccc(NC(=O)[C@@H]3CCCN3C(=O)Cc3ccccc3)cc2)cc1` [Example 254], the concentration for a half-maximal effect (EC50) lay in the range of 100 to 1000 nM.
In the case of `CC(=O)N1CCCC1C(=O)Nc1ccc(/C=C/c2ccc(NC(=O)[C@@H]3CCCN3C(=O)Cc3ccccc3)cc2)cc1` (stereo partly drawn) [Example 251] it was 0.1 to 90 nM; in that of `CN(C)C(=O)N1CCC[C@H]1C(=O)Nc1ccc(/C=C/c2ccc(NC(=O)[C@@H]3CCCN3C(=O)N(C)C)cc2)cc1` [Example 288], 100 to 1000 nM.
`CC(C)(C)O[C@@H]1C[C@@H](C(=O)Nc2ccc(/C=C/c3ccc(NC(=O)[C@@H]4C[C@@H](OC(C)(C)C)CN4C(=O)Cc4cccnc4)cc3)cc2)N(C(=O)Cc2cccnc2)C1` [Example 131]: the EC50 fell in the range of 0.1 to 90 nM.
For the compound `CC(=O)N1CCC[C@H]1C(=O)Nc1ccc(/C=C/c2ccc(NC(=O)[C@@H]3CCCN3C(=O)Cc3ccccc3)cc2)cc1` [Example 258], the concentration for a half-maximal effect (EC50) fell in the range of 0.1 to 90 nM.
With `CC(=O)N1CC=C[C@H]1C(=O)Nc1ccc(/C=C/c2ccc(NC(=O)[C@@H]3C=CCN3C(=O)Cc3ccncc3)cc2)cc1` [Example 220], the EC50 is 1000 to 10000 nM.
For `O=C(Nc1ccc(/C=C/c2ccc(NC(=O)[C@@H]3CCCN3C(=O)c3cccc4ccccc34)cc2)cc1)[C@@H]1CCCN1C(=O)c1cccc2ccccc12` [Example 163], the half-maximal effective concentration (EC50) lay in the range of 1000 to 10000 nM.
Turning to `CCOC(=O)N1CCC[C@H]1C(=O)Nc1ccc(/C=C/c2ccc(NC(=O)[C@@H]3CCCN3C(=O)OCC)cc2)cc1` [Example 57], the EC50 lay within 100 to 1000 nM.
Consider `CCO[C@H]1C[C@@H](C(=O)Nc2ccc(/C=C/c3ccc(NC(=O)[C@@H]4C[C@H](OCC)CN4C(=O)OCc4ccccc4)cc3)cc2)N(C(=O)OCc2ccccc2)C1` [Example 18], for which the EC50 fell in the range of 1000 to 10000 nM.
As for `CC(=O)N1CC=C[C@H]1C(=O)Nc1ccc(/C=C/c2ccc(NC(=O)[C@@H]3C=CCN3C(=O)Cc3ccccn3)cc2)cc1` [Example 216], the EC50 fell in the range of 0.1 to 90 nM.
The result for `[N-]=[N+]=Nc1cccc(CC(=O)N2CCC[C@H]2C(=O)Nc2ccc(/C=C/c3ccc(NC(=O)[C@@H]4CCCN4C(=O)Cc4cccc(N=[N+]=[N-])c4)cc3)cc2)c1` [Example 128] reads 0.1 to 90 nM; that for `Cc1ccc(-c2ccccc2C(=O)N2CCC[C@H]2C(=O)Nc2ccc(/C=C/c3ccc(NC(=O)[C@@H]4CCCN4C(=O)c4ccccc4-c4ccc(C)s4)cc3)cc2)s1` [Example 239], 1000 to 10000 nM; that for `CN(C)[C@H]1C[C@@H](C(=O)Nc2ccc(/C=C/c3ccc(NC(=O)[C@@H]4C[C@H](N(C)C)CN4C(=O)[C@H]4CCCO4)cc3)cc2)N(C(=O)[C@H]2CCCO2)C1` [Example 226], 100 to 1000 nM.
On to `O=C(Nc1ccc(/C=C/c2ccc(NC(=O)[C@@H]3CCCN3C(=O)c3ccsc3)cc2)cc1)[C@@H]1CCCN1C(=O)c1ccsc1` [Example 68], for which the EC50 is 0.1 to 90 nM.
On to `Cc1ccccc1C(=O)N1CCC[C@H]1C(=O)Nc1ccc(/C=C/c2ccc(NC(=O)[C@@H]3CCCN3C(=O)c3ccccc3C)cc2)cc1` [Example 125], for which the concentration giving a half-maximal response (EC50) lay in the range of 100 to 1000 nM.
For the compound `O=C(Nc1ccc(/C=C/c2ccc(NC(=O)[C@@H]3CCCN3C(=O)Cc3ccccc3)cc2)cc1)[C@H]1CCCN1C(=O)Cc1ccccc1` [Example 255], the EC50 was in the range of 100 to 1000 nM.
On to `CN(C)c1ccc(C(=O)N2CCC[C@H]2C(=O)Nc2ccc(/C=C/c3ccc(NC(=O)[C@@H]4CCCN4C(=O)c4ccc(N(C)C)cc4)cc3)cc2)cc1` [Example 82], for which the EC50 fell in the range of 1000 to 10000 nM.
For the compound `CN(C)CC(=O)N1CCC[C@H]1C(=O)Nc1ccc(/C=C/c2ccc(NC(=O)[C@@H]3CCCN3C(=O)c3ccc(N(C)C)cc3)cc2)cc1` [Example 83], the 50% effective concentration (EC50) lay within 100 to 1000 nM.
Consider `CC(C)C(=O)N1CCC[C@H]1C(=O)Nc1ccc(/C=C/c2ccc(NC(=O)[C@@H]3CCCN3C(=O)c3ccc(N(C)C)cc3)cc2)cc1` [Example 93], for which the half-maximal effective concentration (EC50) was 100 to 1000 nM.
Regarding `O=C(Nc1ccc(/C=C/c2ccc(NC(=O)[C@@H]3C=CCN3C(=O)Cc3ccncc3)cc2)cc1)[C@@H]1C=CCN1C(=O)Cc1ccncc1` [Example 221], the 50% effective concentration (EC50) was in the range of 100 to 1000 nM.
With `O=C(Nc1ccc(/C=C/c2ccc(N(C(=O)c3cccs3)C(=O)[C@@H]3CCCN3C(=O)c3cccs3)cc2)cc1)[C@@H]1CCCN1C(=O)c1cccs1` [Example 117], the EC50 was in the range of 0.1 to 90 nM.
Consider `O=C(Nc1ccc(/C=C/c2ccc(NC(=O)C3CC(=O)N(Cc4ccc(Cl)cc4)C3)cc2)cc1)C1CC(=O)N(Cc2ccc(Cl)cc2)C1` (stereo not drawn) [Example 12], for which the EC50 fell in the range of 1000 to 10000 nM.
In the case of `CO[C@H]1C[C@@H](C(=O)Nc2ccc(/C=C/c3ccc(NC(=O)[C@@H]4C[C@H](OC)CN4C(=O)OCc4ccccc4)cc3)cc2)N(C(=O)OCc2ccccc2)C1` [Example 17] it was 1000 to 10000 nM.
With `COc1ccc(C)cc1C(=O)N1CCC[C@H]1C(=O)Nc1ccc(/C=C/c2ccc(NC(=O)[C@@H]3CCCN3C(=O)c3cc(C)ccc3OC)cc2)cc1` [Example 139], the half-maximal effective concentration (EC50) lay within 100 to 1000 nM.

For orientation: EC50 means the concentration that produces a half-maximal response.
